# Test results reported in ChEMBL document CHEMBL1201862, “PubChem BioAssay data set” (2004).
# The source made the active and inactive calls.
# Columns and labels:
# [1] = HGIII-sPLA2 enzyme inhibition potency – biochemical, QFRET, IC50, dose response (AID 743457);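 also: green fluorescence rise as the enzyme cleaves BODIPY PC-A2 in liposomes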
# [2] = biological target: T1, Histone-lysine N-methyltransferase NSD2 (Homo sapiens, UniProt O96028); type: biochemical
# T1 sequence (O96028 whole entry): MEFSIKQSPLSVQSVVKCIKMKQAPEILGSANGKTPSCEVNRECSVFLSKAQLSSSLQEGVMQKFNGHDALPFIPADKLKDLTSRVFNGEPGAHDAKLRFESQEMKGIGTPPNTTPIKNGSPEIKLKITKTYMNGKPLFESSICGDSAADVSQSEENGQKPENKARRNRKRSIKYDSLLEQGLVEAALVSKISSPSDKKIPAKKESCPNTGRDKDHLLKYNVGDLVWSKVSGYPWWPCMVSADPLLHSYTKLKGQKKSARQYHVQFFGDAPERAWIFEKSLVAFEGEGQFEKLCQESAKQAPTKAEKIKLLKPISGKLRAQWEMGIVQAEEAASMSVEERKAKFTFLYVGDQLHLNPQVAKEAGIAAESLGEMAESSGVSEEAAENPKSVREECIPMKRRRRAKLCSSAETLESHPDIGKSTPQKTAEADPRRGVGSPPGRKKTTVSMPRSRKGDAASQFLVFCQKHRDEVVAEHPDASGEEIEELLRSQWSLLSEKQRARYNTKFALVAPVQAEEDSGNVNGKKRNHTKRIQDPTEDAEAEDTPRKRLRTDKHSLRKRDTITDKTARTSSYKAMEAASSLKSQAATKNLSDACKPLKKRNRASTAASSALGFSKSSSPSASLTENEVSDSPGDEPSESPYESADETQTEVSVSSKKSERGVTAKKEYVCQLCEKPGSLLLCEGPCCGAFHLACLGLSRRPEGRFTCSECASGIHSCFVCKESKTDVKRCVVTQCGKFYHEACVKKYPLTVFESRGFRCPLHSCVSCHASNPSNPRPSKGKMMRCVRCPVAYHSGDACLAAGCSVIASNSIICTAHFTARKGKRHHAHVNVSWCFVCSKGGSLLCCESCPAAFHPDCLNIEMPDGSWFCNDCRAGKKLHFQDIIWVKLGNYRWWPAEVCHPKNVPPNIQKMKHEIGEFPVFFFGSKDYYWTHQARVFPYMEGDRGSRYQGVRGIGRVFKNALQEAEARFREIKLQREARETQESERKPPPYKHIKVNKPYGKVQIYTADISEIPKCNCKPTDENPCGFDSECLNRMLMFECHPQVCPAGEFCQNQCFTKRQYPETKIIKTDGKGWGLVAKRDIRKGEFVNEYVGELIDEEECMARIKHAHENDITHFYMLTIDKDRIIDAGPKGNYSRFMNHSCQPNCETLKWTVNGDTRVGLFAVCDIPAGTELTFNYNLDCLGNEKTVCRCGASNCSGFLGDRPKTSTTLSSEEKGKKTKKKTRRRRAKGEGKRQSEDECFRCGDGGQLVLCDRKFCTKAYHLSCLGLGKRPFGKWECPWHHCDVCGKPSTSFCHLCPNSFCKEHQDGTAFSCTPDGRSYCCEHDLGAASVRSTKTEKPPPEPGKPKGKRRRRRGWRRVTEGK
# [3] = viability loss in HeLa cells – cytotoxicity control for MgcRacGAP inhibitor project, dose response (AID 624300); type: functional
# [4] = biological target: T2, DNA repair protein RAD52 homolog (Homo sapiens, UniProt P43351); type: functional, biochemical
# T2 sequence (P43351 whole entry): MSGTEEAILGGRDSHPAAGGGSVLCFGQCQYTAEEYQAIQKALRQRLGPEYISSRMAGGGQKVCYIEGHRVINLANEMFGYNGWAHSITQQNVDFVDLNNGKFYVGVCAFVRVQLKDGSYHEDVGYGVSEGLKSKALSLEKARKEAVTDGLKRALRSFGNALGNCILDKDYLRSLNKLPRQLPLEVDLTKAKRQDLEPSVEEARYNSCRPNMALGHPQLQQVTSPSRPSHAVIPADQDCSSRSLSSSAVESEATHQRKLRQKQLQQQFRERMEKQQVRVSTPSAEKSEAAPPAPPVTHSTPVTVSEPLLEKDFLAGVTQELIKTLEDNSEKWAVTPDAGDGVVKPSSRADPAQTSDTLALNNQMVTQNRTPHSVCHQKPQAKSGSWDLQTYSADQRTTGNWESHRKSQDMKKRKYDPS
# [5] = biological target: Nonstructural protein 1 (Influenza A virus, UniProt Q194T2); type: functional, Influenza A virus (A/California/07/2009(H1N1))
# Sequence of Nonstructural protein 1 (Q194T2 whole entry): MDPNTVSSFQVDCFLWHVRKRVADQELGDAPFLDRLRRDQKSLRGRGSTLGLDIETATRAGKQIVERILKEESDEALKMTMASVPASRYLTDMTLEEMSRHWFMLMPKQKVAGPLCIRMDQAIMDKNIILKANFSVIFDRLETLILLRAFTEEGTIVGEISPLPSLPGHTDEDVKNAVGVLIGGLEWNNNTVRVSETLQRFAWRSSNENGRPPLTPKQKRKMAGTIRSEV
# [6] = biological target: T3, Rac GTPase-activating protein 1 (Homo sapiens, UniProt Q9H0H5); assay: blockers of MgcRacGAP-driven Rac1 GTP hydrolysis – biochemical, ADP Hunter fluorescence, primary and confirmatory, confirmation (AID 624330); type: functional
# T3 sequence (Q9H0H5 whole entry): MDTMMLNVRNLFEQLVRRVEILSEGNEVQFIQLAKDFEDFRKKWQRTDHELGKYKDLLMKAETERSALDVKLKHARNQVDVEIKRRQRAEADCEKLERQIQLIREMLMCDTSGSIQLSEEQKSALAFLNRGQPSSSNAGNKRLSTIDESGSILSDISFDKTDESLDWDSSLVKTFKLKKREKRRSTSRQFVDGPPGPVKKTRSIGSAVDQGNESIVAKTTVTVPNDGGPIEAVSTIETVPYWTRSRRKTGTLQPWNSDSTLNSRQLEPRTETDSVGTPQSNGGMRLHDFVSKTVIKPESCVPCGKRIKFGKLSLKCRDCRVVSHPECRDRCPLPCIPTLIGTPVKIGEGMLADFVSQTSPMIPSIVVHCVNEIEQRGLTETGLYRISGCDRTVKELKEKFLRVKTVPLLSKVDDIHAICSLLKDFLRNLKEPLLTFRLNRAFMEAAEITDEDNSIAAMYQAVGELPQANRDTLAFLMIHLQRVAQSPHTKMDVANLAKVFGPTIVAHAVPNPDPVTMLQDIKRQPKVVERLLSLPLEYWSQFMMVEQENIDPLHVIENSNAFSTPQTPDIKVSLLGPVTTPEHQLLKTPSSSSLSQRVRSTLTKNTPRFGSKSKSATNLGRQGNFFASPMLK
# [7] = viability loss in HepG2 hepatoma cells – cell-based, ATP luminescence, cherry-pick, activator set 2, cytotoxicity control, dose response (AID 1053143); type: functional
# [8] = blockade of melanocortin 4 receptor signaling – cell-based, plate reader, cherry pick, counter-screen for LGR2 antagonist project, dose response (AID 743444); type: functional;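 also: transfected HEK 293 cells stimulated with alpha-MSH peptide; potency of inhibitors of the alpha-MSH evoked signal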
# [9] = A549 cell cytotoxicity, dose response, cytotoxicity control, plate reader, cherry-pick, antagonist series (AID 743412); type: functional, cell-based
# [10] = blockers of bursicon-stimulated LGR2 cAMP reporter – cell-based, HEK293, CRE-luciferase reporter, cherry pick, set 2, dose response (AID 743343); type: functional;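 also: transfected cells were stimulated with diluted bursicon conditioned medium after compound addition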
# [11] = biological target: 1-phosphatidylinositol 4,5-bisphosphate phosphodiesterase beta-3 (Homo sapiens, UniProt Q01970); assay: Fluorescence-based biochemical high throughput dose response assay to identify inhibitors of phospholipase C isozymes (PLC-B3).
# Sequence of 1-phosphatidylinositol 4,5-bisphosphate phosphodiesterase beta-3 (Q01970 whole entry): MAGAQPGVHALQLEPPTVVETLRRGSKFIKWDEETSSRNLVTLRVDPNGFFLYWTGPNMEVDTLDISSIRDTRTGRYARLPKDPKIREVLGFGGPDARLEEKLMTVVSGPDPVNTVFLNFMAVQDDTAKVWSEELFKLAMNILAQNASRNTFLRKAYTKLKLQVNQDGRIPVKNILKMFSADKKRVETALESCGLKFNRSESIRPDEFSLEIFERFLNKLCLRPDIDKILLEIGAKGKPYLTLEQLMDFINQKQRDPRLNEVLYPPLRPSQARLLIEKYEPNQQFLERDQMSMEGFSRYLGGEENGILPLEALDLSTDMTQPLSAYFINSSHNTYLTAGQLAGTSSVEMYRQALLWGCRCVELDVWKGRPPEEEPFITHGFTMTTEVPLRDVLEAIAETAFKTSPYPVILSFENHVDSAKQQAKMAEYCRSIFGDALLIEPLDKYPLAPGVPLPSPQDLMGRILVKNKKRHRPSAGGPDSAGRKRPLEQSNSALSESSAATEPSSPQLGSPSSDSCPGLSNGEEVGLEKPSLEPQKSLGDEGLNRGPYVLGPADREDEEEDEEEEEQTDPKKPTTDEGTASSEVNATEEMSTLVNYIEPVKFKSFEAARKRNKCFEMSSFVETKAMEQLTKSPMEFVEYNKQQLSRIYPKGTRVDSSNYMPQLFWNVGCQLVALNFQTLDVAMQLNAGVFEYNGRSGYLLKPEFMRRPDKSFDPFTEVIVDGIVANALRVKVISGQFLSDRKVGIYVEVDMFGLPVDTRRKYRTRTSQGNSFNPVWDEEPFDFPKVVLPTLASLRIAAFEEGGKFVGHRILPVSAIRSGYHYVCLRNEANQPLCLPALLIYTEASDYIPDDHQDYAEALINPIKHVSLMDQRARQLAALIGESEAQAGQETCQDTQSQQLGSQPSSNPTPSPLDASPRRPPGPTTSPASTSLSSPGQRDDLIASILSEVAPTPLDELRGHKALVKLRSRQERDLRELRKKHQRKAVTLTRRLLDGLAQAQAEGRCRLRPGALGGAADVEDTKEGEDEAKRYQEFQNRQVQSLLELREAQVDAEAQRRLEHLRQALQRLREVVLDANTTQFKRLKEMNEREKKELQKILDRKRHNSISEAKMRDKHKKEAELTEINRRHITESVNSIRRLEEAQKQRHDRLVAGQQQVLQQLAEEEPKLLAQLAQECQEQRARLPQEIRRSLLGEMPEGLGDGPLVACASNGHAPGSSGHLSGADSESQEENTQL
# [12] = biological target: 1-phosphatidylinositol 4,5-bisphosphate phosphodiesterase gamma-1 (Homo sapiens, UniProt P19174); assay: Counterscreen for inhibitors of phospholipase C isozymes (PLC-B3): Fluorescence-based biochemical high throughput dose response assay to identify inhibitors of phospholipase C isozymes (PLC-gamma1).
# Sequence of 1-phosphatidylinositol 4,5-bisphosphate phosphodiesterase gamma-1 (P19174 whole entry): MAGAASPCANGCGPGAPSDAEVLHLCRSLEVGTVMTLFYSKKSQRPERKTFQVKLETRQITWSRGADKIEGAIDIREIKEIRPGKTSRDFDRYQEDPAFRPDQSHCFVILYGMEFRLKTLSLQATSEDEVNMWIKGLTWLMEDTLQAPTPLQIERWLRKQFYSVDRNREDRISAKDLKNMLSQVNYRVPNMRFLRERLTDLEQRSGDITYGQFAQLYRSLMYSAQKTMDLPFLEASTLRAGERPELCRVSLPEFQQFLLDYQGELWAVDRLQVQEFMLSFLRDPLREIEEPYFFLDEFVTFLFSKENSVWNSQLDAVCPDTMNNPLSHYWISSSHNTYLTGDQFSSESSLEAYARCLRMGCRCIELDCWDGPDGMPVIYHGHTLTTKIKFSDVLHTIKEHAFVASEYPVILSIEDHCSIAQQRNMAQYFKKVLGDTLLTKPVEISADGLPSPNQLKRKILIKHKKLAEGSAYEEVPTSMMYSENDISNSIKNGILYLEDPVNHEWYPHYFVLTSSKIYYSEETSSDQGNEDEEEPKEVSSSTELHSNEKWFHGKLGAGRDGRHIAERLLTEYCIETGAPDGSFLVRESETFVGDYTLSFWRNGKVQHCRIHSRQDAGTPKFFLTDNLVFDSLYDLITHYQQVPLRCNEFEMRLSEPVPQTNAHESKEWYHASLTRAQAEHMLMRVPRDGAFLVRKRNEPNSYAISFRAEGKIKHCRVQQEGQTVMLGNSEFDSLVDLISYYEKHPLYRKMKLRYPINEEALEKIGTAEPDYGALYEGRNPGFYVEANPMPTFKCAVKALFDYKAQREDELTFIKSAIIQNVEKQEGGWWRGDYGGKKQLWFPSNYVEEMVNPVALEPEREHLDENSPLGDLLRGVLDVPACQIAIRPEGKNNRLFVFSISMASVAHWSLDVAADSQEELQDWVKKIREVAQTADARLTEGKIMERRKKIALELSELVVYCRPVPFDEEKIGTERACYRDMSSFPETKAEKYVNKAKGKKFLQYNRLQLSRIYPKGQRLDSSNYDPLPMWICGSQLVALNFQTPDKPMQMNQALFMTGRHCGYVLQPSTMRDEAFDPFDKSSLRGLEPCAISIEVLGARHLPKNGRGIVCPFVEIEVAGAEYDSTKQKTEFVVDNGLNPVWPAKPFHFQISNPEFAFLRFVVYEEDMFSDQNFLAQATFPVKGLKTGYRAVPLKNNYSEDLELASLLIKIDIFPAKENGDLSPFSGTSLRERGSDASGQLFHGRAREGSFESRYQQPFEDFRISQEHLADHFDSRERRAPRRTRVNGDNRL
smiles,measurement,setting,value
CC[n+]1ccc(/C=C/c2ccc(N(C)C)cc2)c2ccccc21,IC50,[1],24.6 µM (inactive)
same,AC50,[2],13.4 µM (active)
same,CC50,[3],49.2 µM (active)
same,AC50,[4],2.21 µM (active)
same,IC50,[5],9.07 µM (active)
same,IC50,[6],36.1 µM (active)
Cc1cc2cc(CCNC(=O)c3cccs3)c(O)nc2cc1C,AC50,[7],26 µM (active)
CC(=O)C(=CNc1cc(-c2ccc(C)cc2)nn1-c1ccccc1)C(C)=O,AC50,[7],26 µM (active)
CN1c2ccc(-c3ccc(F)cc3)cc2[C@H]2[C@H](CCN2C(=O)Nc2ccc(F)cc2)[C@H]1CO,AC50,[8],18.4 µM (active)
same,AC50,[9],24.3 µM (active)
same,AC50,[10],18.6 µM (active)
CCCNC(=O)C[C@H]1CC[C@H]2[C@@H](COc3ccc(NC(=O)c4cncs4)cc3C(=O)N2C)O1,IC50,[11],55.4 µM (inactive)
same,IC50,[12],59.1 µM (inactive)
